Our source for the EC50 values is US20160137639A1, “TRIAZOLE-ISOXAZOLE COMPOUND AND MEDICAL USE THEREOF” (JAPAN TOBACCO INC., priority 2012, published 2016).

Bounds are passed on as bounds.

The EC50 is the concentration needed to bring the measured effect to its halfway point.

One experiment addresses T1, human RORγ (Homo sapiens, UniProt P51449).
T1 construct: human, NM_005060.3 and from Ser253 to Lys518; expressed in transfected cells; host or cells: CHO cells (transient co-transfection with pG5-Luc reporter)
T1 sequence (P51449 253-518): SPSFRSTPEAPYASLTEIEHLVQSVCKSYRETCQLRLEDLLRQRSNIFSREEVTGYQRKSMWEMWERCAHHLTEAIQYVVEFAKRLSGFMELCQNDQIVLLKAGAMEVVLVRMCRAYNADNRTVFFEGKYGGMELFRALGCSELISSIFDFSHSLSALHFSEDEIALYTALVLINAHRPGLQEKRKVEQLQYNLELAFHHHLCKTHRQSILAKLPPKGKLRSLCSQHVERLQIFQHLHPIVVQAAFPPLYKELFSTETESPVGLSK
Kind of experiment: Luciferase reporter gene assay of inhibitory effect against RORγ transcriptional activity (GAL4-hRORγ plasmid in CHO cells). Particulars: read-out: LUC EC50 (μM) hRORg. Format: cell-based. (Reporter assays use an easily measured gene product as a stand-in for the process of interest.)

For a further experiment, the target named is T2, mouse RORγ (Mus musculus, UniProt P51450).
T2 construct: mouse, NM_011281.2 and from Ile251 to Lys516; expressed in transfected cells; host or cells: CHO cells (transient co-transfection with pG5-Luc reporter)
T2 sequence (P51450 251-516): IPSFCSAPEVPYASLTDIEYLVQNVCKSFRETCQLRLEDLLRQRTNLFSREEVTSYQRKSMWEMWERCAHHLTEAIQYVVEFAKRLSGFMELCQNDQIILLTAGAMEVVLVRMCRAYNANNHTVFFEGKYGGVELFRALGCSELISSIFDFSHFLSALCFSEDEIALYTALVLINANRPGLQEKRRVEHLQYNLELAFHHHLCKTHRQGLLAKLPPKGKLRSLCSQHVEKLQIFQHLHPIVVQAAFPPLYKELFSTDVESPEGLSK
Kind of experiment: Luciferase reporter gene assay of inhibitory effect against RORγ transcriptional activity (GAL4-mRORγ plasmid in CHO cells). In kind it is cell-based. The conditions noted are these: read-out: LUC EC50 (μM) mRORg. In a few lines: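 Readout is intracellular luciferase after 2-day compound exposure (8 concentrations, 0.1% DMSO) in CHO cells expressing GAL4 fused to mouse RORγ LBD residues Ile251–Lys516 plus pG5-Luc reporter. EC50 fitted from %-of-control; points showing resazurin-detected cytotoxicity dropped.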

As to `CC(=O)N1C[C@@H](C(=O)Nc2ccc(C)cc2C)[C@H](c2nnc(CCCC(C)(C)C)n2CC(F)(F)F)C1` [Example F-393], the EC50 on human RORγ and on mouse RORγ was greater than 3 µM in each case.

Consider `CC(=O)N1C[C@H](C(=O)Nc2ccc(C)cc2C)[C@@H](c2nnc(CCC3CCCCC3)n2C2CC2)C1` [Example F-402], for which the concentration giving a half-maximal response (EC50) on human RORγ and at mouse RORγ was less than 3 µM in each case.

In the case of `Cc1ccc(NC(=O)C[C@@H](c2nnc(CCCC(C)(C)C)n2C2CC2)N2CCCC2=O)c(C)c1` [Example F-403], the EC50 on human RORγ and at mouse RORγ was less than 3 µM each time.

As to `Cc1ccc(NC(=O)CCc2nnc(-c3ccc(CC(C)C)cc3)n2C2CC2)c(C)c1` [Example F-404], the EC50 on human RORγ and at mouse RORγ was less than 3 µM each time.

As to `Cc1ccc(NC(=O)CCc2nnc(-c3cc(CC(C)C)on3)n2C2CC2)c(C)c1` [Example F-405], the EC50 on human RORγ and at mouse RORγ was less than 3 µM throughout.

Consider `CC(=O)N1C[C@H](C(=O)Nc2ccc(C)cc2C)[C@@H](c2nnc(-c3ccc(CC(C)C)cc3)n2C2CC2)C1` [Example F-406], for which the concentration for a half-maximal effect (EC50) at human RORγ and on mouse RORγ was less than 3 µM throughout.

For the compound `CC(=O)N1C[C@@H](C(=O)Nc2ccc(C)cc2C)[C@H](c2nnc(-c3ccc(CC(C)C)cc3)n2C2CC2)C1` [Example F-407], the EC50 on human RORγ and at mouse RORγ was greater than 3 µM each time.

Consider `CC(=O)N1C[C@H](C(=O)Nc2ccc(C)cc2C)[C@@H](c2nnc(-c3cc(CC(C)C)on3)n2C2CC2)C1` [Example F-408], for which the EC50 on human RORγ and on mouse RORγ was less than 3 µM throughout.

As to `CC(=O)N1C[C@@H](C(=O)Nc2ccc(C)cc2C)[C@H](c2nnc(-c3cc(CC(C)C)on3)n2C2CC2)C1` [Example F-409], the EC50 on human RORγ and at mouse RORγ was greater than 3 µM throughout.

As for `CC(=O)N1C[C@H](C(=O)Nc2ccc(C)cc2C)[C@@H](c2nnc(-c3ccc(C(C)C)cc3)n2C2CC2)C1` [Example F-411], the EC50 at human RORγ and on mouse RORγ was less than 3 µM throughout.

With `Cc1ccc(NC(=O)CCc2nnc(C3CC4(CCCC4)C3)n2C2CC2)c(C)c1` [Example F-420], the EC50 on human RORγ and at mouse RORγ was less than 3 µM in each case.

For the compound `Cc1ccc(NC(=O)CCc2nnc([C@H]3C[C@H](CC4CCCC4)C3)n2C2CC2)c(C)c1` [Example F-423], the half-maximal effective concentration (EC50) at human RORγ and at mouse RORγ was less than 3 µM throughout.

Take `Cc1ccc(NC(=O)CCc2nnc([C@H]3C[C@@H](CC4CCCC4)C3)n2C2CC2)c(C)c1` [Example F-424]: the EC50 at human RORγ and on mouse RORγ was less than 3 µM in each case.

For `Cc1ccc(NC(=O)CCc2nnc([C@H]3C[C@H](CC(C)(C)C)C3)n2C2CC2)c(C)c1` [Example F-425], the half-maximal effective concentration (EC50) at human RORγ and at mouse RORγ was less than 3 µM each time.

Turning to `Cc1ccc(NC(=O)CCc2nnc([C@H]3C[C@@H](CC(C)(C)C)C3)n2C2CC2)c(C)c1` [Example F-426], the EC50 at human RORγ and at mouse RORγ was less than 3 µM in each case.

With `CCOC(=O)CO[C@@H](CC(=O)Nc1ccc(C)cc1C)c1nnc([C@H]2C[C@@H](CC(C)C)C2)n1C1CC1` [Example F-433], the half-maximal effective concentration (EC50) at human RORγ and at mouse RORγ was less than 3 µM each time.

In the case of `Cc1ccc(NC(=O)C[C@H](OCCO)c2nnc([C@H]3C[C@@H](CC(C)C)C3)n2C2CC2)c(C)c1` [Example F-434], the EC50 at human RORγ and on mouse RORγ was less than 3 µM throughout.

For `Cc1ccc(NC(=O)CCc2nnc(-c3ccc(OC(C)C)cc3)n2C2CC2)c(C)c1` [Example F-441], the EC50 at human RORγ is greater than 3 µM; at mouse RORγ, less than 3 µM.

`Cc1ccc(NC(=O)CCc2nnc(-c3ccc(O)cc3)n2C2CC2)c(C)c1` [Example F-442]: the EC50 at human RORγ and on mouse RORγ was greater than 3 µM each time.

With `Cc1ccc(NC(=O)CCc2nnn(CCC3CCCCC3)c2C2CC2)c(C)c1` [Example F-443], the EC50 at human RORγ and at mouse RORγ was less than 3 µM in each case.

For `Cc1ccc(NC(=O)CCc2nnc([C@H]3C[C@@H](CCC(C)C)C3)n2C2CC2)c(C)c1` [Example F-444], the EC50 at human RORγ and on mouse RORγ was less than 3 µM throughout.

Consider `CCC1(CC)CC(c2nnc(CCC(=O)Nc3ccc(C)cc3C)n2C2CC2)C1` [Example F-451], for which the EC50 on human RORγ and at mouse RORγ was less than 3 µM each time.

Take `Cc1ccc(NC(=O)C[C@H](CCOCc2ccccc2)c2nnc([C@H]3C[C@@H](CC(C)C)C3)n2C2CC2)c(C)c1` [Example F-456]: the EC50 on human RORγ and on mouse RORγ was less than 3 µM throughout.

As to `Cc1ccc(NC(=O)C[C@H](CCO)c2nnc(-c3cc(CC(C)C)on3)n2C2CC2)c(C)c1` [Example F-457], the half-maximal effective concentration (EC50) is less than 3 µM at human RORγ and greater than 3 µM on mouse RORγ.

On to `Cc1ccc(NC(=O)C[C@@H](CCO)c2nnc(-c3cc(CC(C)C)on3)n2C2CC2)c(C)c1` [Example F-458], for which the EC50 on human RORγ and at mouse RORγ was greater than 3 µM in each case.

With `C=CCOc1ccc(-c2nnc(CCC(=O)Nc3ccc(C)cc3C)n2C2CC2)cc1` [Example F-460], the EC50 at human RORγ and on mouse RORγ was greater than 3 µM each time.

As for `CC(=O)N1C[C@H](C(=O)Nc2ccc(C)cc2C)[C@@H](c2nnc([C@H]3C[C@@H](CC(C)(C)C)C3)n2C2CC2)C1` [Example F-461], the EC50 at human RORγ and on mouse RORγ was less than 3 µM throughout.

For the compound `CC(=O)N1C[C@@H](C(=O)Nc2ccc(C)cc2C)[C@H](c2nnc([C@H]3C[C@@H](CC(C)(C)C)C3)n2C2CC2)C1` [Example F-462], the EC50 on human RORγ and at mouse RORγ was less than 3 µM throughout.

Regarding `CCCOc1ccc(-c2nnc(CCC(=O)Nc3ccc(C)cc3C)n2C2CC2)cc1` [Example F-463], the results for the EC50 at human RORγ and at mouse RORγ were greater than 3 µM and less than 3 µM, respectively.

On to `Cc1ccc(NC(=O)C[C@@H](CC#N)c2nnc([C@H]3C[C@@H](CC(C)C)C3)n2C2CC2)c(C)c1` [Example F-464], for which the figures for the EC50 at human RORγ and at mouse RORγ were greater than 3 µM and less than 3 µM, respectively.

As to `Cc1ccc(NC(=O)C[C@H](CC#N)c2nnc([C@H]3C[C@@H](CC(C)C)C3)n2C2CC2)c(C)c1` [Example F-465], the EC50 at human RORγ and at mouse RORγ was less than 3 µM throughout.

Consider `CC(=O)N1CC([C@@H](CC(=O)Nc2ccc(C)cc2C)c2nnc([C@H]3C[C@@H](CC(C)C)C3)n2C2CC2)C1` [Example F-466], for which the EC50 at human RORγ and on mouse RORγ was less than 3 µM throughout.

`CC(=O)N1CC([C@H](CC(=O)Nc2ccc(C)cc2C)c2nnc([C@H]3C[C@@H](CC(C)C)C3)n2C2CC2)C1` [Example F-467]: the concentration giving a half-maximal response (EC50) on human RORγ and at mouse RORγ was greater than 3 µM each time.

`Cc1ccc(NC(=O)[C@H]2C[C@@H](O)C[C@@H]2c2nnc([C@H]3C[C@@H](CC(C)C)C3)n2C2CC2)c(C)c1` [Example F-470]: the EC50 at human RORγ and on mouse RORγ was less than 3 µM throughout.

As to `Cc1ccc(NC(=O)[C@@H]2C[C@H](O)C[C@H]2c2nnc([C@H]3C[C@@H](CC(C)C)C3)n2C2CC2)c(C)c1` [Example F-471], the EC50 on human RORγ and on mouse RORγ was greater than 3 µM each time.

Turning to `CC(=O)N1C[C@H](C(=O)Nc2ccc(C)cc2C)[C@@H](c2nnc(C3CC4(CCCCC4)C3)n2C2CC2)C1` [Example F-473], the EC50 at human RORγ and at mouse RORγ was less than 3 µM throughout.

`CC(=O)N1C[C@@H](C(=O)Nc2ccc(C)cc2C)[C@H](c2nnc(C3CC4(CCCCC4)C3)n2C2CC2)C1` [Example F-474]: the 50% effective concentration (EC50) at human RORγ was greater than 3 µM; on mouse RORγ, less than 3 µM.

On to `Cc1ccc(NC(=O)C[C@H](Cc2nccs2)c2nnc([C@H]3C[C@@H](CC(C)C)C3)n2C2CC2)c(C)c1` [Example F-475], for which the half-maximal effective concentration (EC50) on human RORγ and on mouse RORγ was less than 3 µM throughout.

For `Cc1ccc(NC(=O)C[C@@H](Cc2nccs2)c2nnc([C@H]3C[C@@H](CC(C)C)C3)n2C2CC2)c(C)c1` [Example F-476], the EC50 on human RORγ and at mouse RORγ was less than 3 µM throughout.

On to `Cc1ccc(NC(=O)C[C@H](CN2CC(=O)NC2=O)c2nnc([C@H]3C[C@@H](CC(C)C)C3)n2C2CC2)c(C)c1` [Example F-479], for which the EC50 on human RORγ and on mouse RORγ was less than 3 µM in each case.

Consider `CNC(=O)CO[C@@H](CC(=O)Nc1ccc(C)cc1C)c1nnc([C@H]2C[C@@H](CC(C)C)C2)n1C1CC1` [Example F-480], for which the EC50 on human RORγ and on mouse RORγ was less than 3 µM each time.

For the compound `COCC(=O)NC[C@@H](CC(=O)Nc1ccc(C)cc1C)c1nnc([C@H]2C[C@@H](CC(C)C)C2)n1C1CC1` [Example F-487], the EC50 at human RORγ and on mouse RORγ was less than 3 µM each time.

As to `Cc1ccc(NC(=O)C(C)C(CCOCc2ccccc2)c2nnc([C@H]3C[C@@H](CC(C)C)C3)n2C2CC2)c(C)c1` (stereo partly shown) [Example F-489], the figures for the EC50 on human RORγ and on mouse RORγ were greater than 3 µM and less than 3 µM, respectively.

Turning to `Cc1ccc(NC(=O)CCc2noc(CCC3CCCCC3)c2C2CC2)c(C)c1` [Example F-494], the EC50 at human RORγ and on mouse RORγ was less than 3 µM each time.
